Measurements: article PMC3021692, “Synthesis and Pharmacological Evaluation of Novel Schiff Base Analogues of 3-(4-amino) Phenylimino) 5-fluoroindolin-2-one” (Journal of Young Pharmacists : JYP, 2010)

How the values were obtained:
Format in all cases: in vivo
[1] = tested on: Albino rats of Wistar strain; assay: Evaluation of ulcerogenicity index (pylorus ligation); set-up: scale not given here; settings: pylorus ligated on fourth day, mean ± SD (n = 6)
Description: The synthesized compounds were evaluated for analgesic, anti-inflammatory, and ulcerogenic index. […] The test compounds and the standard drugs were administered in the form of a suspension (1% carboxymethyl cellulose as a vehicle) by oral route for analgesic and anti-inflammatory but for ulcerogenicity studies by intraperitoneally as suspension in 10% v/v Tween-20. Each group consisted of six animals. The animals were procured from the C. L. Baid Metha College of pharmacy, Chennai, and were maintained in colony cages at 25 ±2°C, relative humidity of 45-55%, under a 12-h light and dark cycle; they were fed standard animal feed. All the animals were acclimatized for a week before use. The Institutional Animal Ethics Committee approved the protocol adopted for the experimentation of animals. Ulceration in rats was induced as described by Goyal et al. Albino rats of Wistar strain weighing 150-200 g of either sex were divided into various groups each of six animals.[16] Control group of animals was administered only with 10% v/v Tween 80 suspension intraperitonially. One group was administered with aspirin (German Remedies) intraperitoneally at a dose of 200 mg/kg once daily for 3 days. The remaining group of animals was administered with test compounds intraperitoneally at a dose of 20 mg/kg. On fourth day, Pylorus was ligated as per the method of Shay et al.[17] Animals were fasted for 36 h before the pylorus ligation procedure. Four hours after the ligation, animals were sacrificed. The stomach was removed and opened along with the greater curvature. Ulcer index was determined by the method of Ganguly and Bhatnagar.[18]

[2] = tested on: carrageenan-induced paw edema in rats; assay: Anti-inflammatory activity, carrageenan-induced paw edema test; settings: for Percent anti-inflammatory activity (percent inhibition of paw edema): mean ± SD (n = 6); for Anti-inflammatory activity compared to reference standard diclofenac sodium (in words): carrageenan-induced paw edema in rats
Description: (§1) The synthesized compounds were evaluated for analgesic, anti-inflammatory, and ulcerogenic index. […] The test compounds and the standard drugs were administered in the form of a suspension (1% carboxymethyl cellulose as a vehicle) by oral route for analgesic and anti-inflammatory but for ulcerogenicity studies by intraperitoneally as suspension in 10% v/v Tween-20. Each group consisted of six animals. The animals were procured from the C. L. Baid Metha College of pharmacy, Chennai, and were maintained in colony cages at 25 ±2°C, relative humidity of 45-55%, under a 12-h light and dark cycle; they were fed standard animal feed. All the animals were acclimatized for a week before use. The Institutional Animal Ethics Committee approved the protocol adopted for the experimentation of animals.
Anti-inflammatory activity was evaluated by carrageenan-induced paw edema test in rats.[15] Diclofenac sodium 10, 20 mg/kg was administered as a standard drug for comparison. The test compounds were administered at two dose levels (10 mg/kg, 20 mg/kg). The paw volumes were measured using the mercury displacement technique with the help of a plethysmograph (Model PLYAN; Buxco, USA) immediately before and 30 min, 1, 2, and 3 h after carrageenan injection. The percent inhibition of paw edema was calculated using the following formula.
Percent inhibition I = 100 1− (a−x) / (b−y)
Where x is the mean paw volume of rats before the administration of carrageenan and test compounds or reference compound (test group), a is the mean paw volume of rats after the administration of carrageenan in the test group (drug treated), b is the mean paw volume of rats after the administration of carrageenan in the control group, y is the mean paw volume of rats before the administration of carrageenan in the control group.

[3] = tested on: Wistar albino mice; assay: Analgesic activity, tail-flick technique; settings: for Percent analgesic activity: mean ± SD (n = 6)
Description: as §1
The analgesic activity was performed by tail-flick technique using Wistar albino mice (25-35 g) of either sex selected by the random sampling technique.[1314] Diclofenac sodium at a dose level of 10 mg/kg and 20 mg/kg was administered orally as reference drug for comparison. The test compounds at two dose levels (10, 20 mg/kg) were administered orally. The reaction time was recorded at 30 min, 1, 2, and 3 h after the treatment, and cut-off time was 10 s. The percent analgesic activity (PAA) was calculated by the following formula, where T1 is the reaction time (s) before treatment, and T2 is the reaction time (s) after treatment.

[4] = 10 mg/kg oral, 30 min after carrageenan
[5] = 10 mg/kg oral, 1 h after carrageenan
[6] = 10 mg/kg oral, 2 h after carrageenan
[7] = 10 mg/kg oral, 3 h after carrageenan
[8] = 20 mg/kg oral, 30 min after carrageenan
[9] = 20 mg/kg oral, 1 h after carrageenan
[10] = 20 mg/kg oral, 2 h after carrageenan
[11] = 20 mg/kg oral, 3 h after carrageenan
[12] = 10 mg/kg oral, 30 min after treatment
[13] = 10 mg/kg oral, 1 h after treatment
[14] = 10 mg/kg oral, 2 h after treatment
[15] = 10 mg/kg oral, 3 h after treatment
[16] = 20 mg/kg oral, 30 min after treatment
[17] = 20 mg/kg oral, 1 h after treatment
[18] = 20 mg/kg oral, 2 h after treatment
[19] = 20 mg/kg oral, 3 h after treatment
[20] = test compounds 20 mg/kg intraperitoneally

| SMILES | Percent anti-inflammatory activity (percent inhibition of paw edema) [2, 4] [%] | Percent anti-inflammatory activity (percent inhibition of paw edema) [2, 5] [%] | Percent anti-inflammatory activity (percent inhibition of paw edema) [2, 6] [%] | Percent anti-inflammatory activity (percent inhibition of paw edema) [2, 7] [%] | Percent anti-inflammatory activity (percent inhibition of paw edema) [2, 8] [%] | Percent anti-inflammatory activity (percent inhibition of paw edema) [2, 9] [%] | Percent anti-inflammatory activity (percent inhibition of paw edema) [2, 10] [%] | Percent anti-inflammatory activity (percent inhibition of paw edema) [2, 11] [%] | Percent analgesic activity [3, 12] [%] | Percent analgesic activity [3, 13] [%] | Percent analgesic activity [3, 14] [%] | Percent analgesic activity [3, 15] [%] | Percent analgesic activity [3, 16] [%] | Percent analgesic activity [3, 17] [%] | Percent analgesic activity [3, 18] [%] | Percent analgesic activity [3, 19] [%] | Ulcer index [1, 20] | Anti-inflammatory activity compared to reference standard diclofenac sodium (in words) [2] | further results |
| --- | --- | --- | --- | --- | --- | --- | --- | --- | --- | --- | --- | --- | --- | --- | --- | --- | --- | --- | --- |
| CC(=O)Oc1ccccc1C(=O)O [Aspirin, aspirin, reference compound] |  |  |  |  |  |  |  |  |  |  |  |  |  |  |  |  |  |  | Ulcer index ([1]; aspirin 200 mg/kg intraperitoneally once daily for 3 days): 1.73 ± 0.39; Ulcer index ([1]; aspirin 200 mg/kg intraperitoneally once daily for 3 days, listed as aspirin): 1.73 ± 0.41 |
| CCC(C)=Nc1ccc(N=C2C(=O)Nc3ccc(F)cc32)cc1 [Compound N1] | 39 ± 1.25 | 45 ± 1.32 | 52 ± 1.15 | 32 ± 1.96 | 44 ± 1.36 | 52 ± 1.96 | 58 ± 1.32 | 37 ± 1.45 | 47 ± 1.25 | 51 ± 1.32 | 53 ± 1.15 | 31 ± 1.96 | 54 ± 1.36 | 58 ± 1.96 | 60 ± 1.16 | 47 ± 1.45 | 0.84 ± 1.43 |  |  |
| CCC(CC)=Nc1ccc(N=C2C(=O)Nc3ccc(F)cc32)cc1 [Compound N2] | 42 ± 1.25 | 50 ± 1.38 | 53 ± 1.15 | 45 ± 1.68 | 51 ± 1.44 | 57 ± 1.72 | 62 ± 1.26 | 54 ± 1.67 | 50 ± 1.25 | 56 ± 1.32 | 60 ± 1.15 | 45 ± 1.68 | 57 ± 1.44 | 60 ± 1.90 | 64 ± 1.26 | 50 ± 1.67 | 0.97 ± 1.53 | equipotent |  |
| CCCC(C)=Nc1ccc(N=C2C(=O)Nc3ccc(F)cc32)cc1 [Compound N3] | 49 ± 1.75 | 54 ± 1.82 | 60 ± 1.35 | 43 ± 1.96 | 54 ± 1.59 | 62 ± 1.77 | 66 ± 1.24 | 52 ± 1.45 | 55 ± 1.75 | 62 ± 1.82 | 64 ± 1.35 | 46 ± 1.96 | 62 ± 1.59 | 66 ± 1.77 | 69 ± 1.24 | 52 ± 1.45 | 0.85 ± 1.28 | moderately more potent | Analgesic activity (in words) ([3]; tail-flick, structure-activity comparison within the series / vs diclofenac sodium): good activity |
